Data set [1] is described as follows: Kinetic changes in radioactivities in the blood and the cerebral tissue after intravenous injection. In kind it is in vivo, mice (ddy strain). The note with it: mice, i.v. tail vein. The protocol:
Normal male mice of the ddy strain at 6 weeks of age were injected intravenously through tail vein with 0.05 ml of […] ^18 F in DMSO solution.
Kinetic changes in radioactivities in the blood and the cerebral tissue of the mice injected with ^18 F-AFDG.

Data set [2] in a line: Intra-cerebral and blood concentrations of ^18 F-AFDG and its metabolites after intravenous injection. Format: in vivo. To be noted: mice. Here is the method:
Mice were given an intravenous injection of 0.05 ml solution of 0.5 mM ^18 F-AFD in DMSO.

The text below walks through data of patent US5739117A, “Agent for improving cerebral metabolism including glucose ester derivatives” (Fujimoto Pharmaceutical Co., Ltd., priority 1993, dated 1998).

For `CC(=O)OC[C@H]1OC(OC(C)=O)[C@H]([18F])[C@@H](OC(C)=O)[C@@H]1OC(C)=O` (stereo partly drawn) [^18 F-AFDG, 1,3,4,6-tetra-O-acetyl-2-^18 F-D-glucose], the “time up to which levels of radioactivity in the cerebral tissue increased” value in data set [1] (0.05 ml in DMSO, FIG. 1) worked out at 30 min. In addition, the blood radioactivity levels entry in data set [1] (0.05 ml in DMSO, following administration) is recorded as “decreased consistently following administration”. Further, in data set [1] (0.05 ml in DMSO, immediately after administration), the “radioactivity in the cerebral tissue after administration” value is given as “could be detected in the cerebral tissue immediately after administration”. Further, in data set [1] (at 10 minutes of administration and thereafter), the “radioactivity in the cerebral tissue compared with blood” value is reported as “higher in the cerebral tissue than in the blood”. For the same compound, the “proportion that reached the cerebral tissue” value in data set [2] (i.v., 0.05 ml of 0.5 mM in DMSO, within 0.5 minute following administration) was “approximately 40%”. In addition, the “extent metabolized into ^18 F-FDG-6-phosphate” value in data set [2] (i.v., cerebral tissue, at 180 minutes) was “the entire ^18 F-AFDG was found to be metabolized into ^18 F-FDG-6-phosphate”.

On to `O=P(O)(O)OC[C@H]1OC(O)[C@H]([18F])[C@@H](O)[C@@H]1O` (stereo partly drawn) [^18 F-FDG-6-phosphate], for which, in data set [2] (i.v. ^18 F-AFDG, 0.5 mM in DMSO, cerebral tissue), the “time of emergence of intra-cerebral metabolites” value was ≤ 0.5 min. For the same compound, the “concentration in the cerebral tissue over time” value in data set [2] (i.v. ^18 F-AFDG, after 0.5 minute, FIG. 3) is reported as “raised markedly”. For the same compound, the “proportion among ^18 F-AFDG and metabolites in the cerebral tissue” value in data set [2] (i.v. ^18 F-AFDG, at 5, 60 and 180 minutes, compared with blood, FIGS. 4 and 5) is on record as “highest proportion in the cerebral tissue”.
